Consider 32 compounds from ChEMBL document CHEMBL1141624, “Discovery of small molecule benzimidazole antagonists of the chemokine receptor CXCR3” (Bioorg Med Chem Lett, 2008).

Converted amounts (≈) assume the structure as drawn.

As usually defined, the IC50 is the concentration at which inhibition is half-maximal. The half-life is the time in which the quantity being followed falls by half. A lower half-life goes with rapid decline. By solubility is commonly meant the dissolved amount per volume that the medium holds. A high value points to much dissolved substance. What is called bioavailability is the share of a dose that reaches the circulation, judged against a reference dose that is usually intravenous. Low readings indicate little systemic uptake, high ones much systemic uptake.

Series [1] has as its target T1, C-X-C chemokine receptor type 3 (Homo sapiens, UniProt P49682).
T1 sequence (P49682 whole entry): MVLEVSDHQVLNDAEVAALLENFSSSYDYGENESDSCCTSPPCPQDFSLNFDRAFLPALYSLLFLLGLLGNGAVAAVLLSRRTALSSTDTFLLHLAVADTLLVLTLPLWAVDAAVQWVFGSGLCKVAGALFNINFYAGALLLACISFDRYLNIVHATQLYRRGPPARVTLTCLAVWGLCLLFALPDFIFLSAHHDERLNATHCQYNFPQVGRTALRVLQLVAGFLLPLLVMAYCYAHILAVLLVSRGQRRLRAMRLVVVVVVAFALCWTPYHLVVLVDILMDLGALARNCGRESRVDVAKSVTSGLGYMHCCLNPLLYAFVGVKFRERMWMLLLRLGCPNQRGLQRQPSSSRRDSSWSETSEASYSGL
Briefly: Displacement of [125]CXCL10 from human CXCR3 expressed in CHO cells. It counts as cell-based.

The target of series [2] is T1, C-X-C chemokine receptor type 3. The experiment in a line: Antagonist activity at human CXCR3 expressed in CHO cells by FLIPR-based calcium mobilization assay. It counts as functional, cell-based. A general note: Calcium flux is commonly read through the fluorescence of an indicator in the cells.
Series [3] in a line: Half life in SJL mouse at 20 mg/kg, po. On the set-up: dose 20 mg/kg, route oral. Conditions: in vivo. The format is ADME, organism-based.
A short description of series [4]: Clearance in SJL mouse at 10 mg/kg, po and 5 mg/kg, iv. The format is ADME, organism-based. Conditions: in vivo.
Series [5] in a line: Aqueous solubility of the compound. It counts as physicochemical. Particulars: buffer.
Series [6] relates to Liver microsomes. Briefly: Stability in rat liver microsome. It counts as ADME. A general note: Microsomes from liver hold many membrane-bound enzymes, among them those of drug oxidation.
A short description of series [7]: Protein binding in rat plasma. Particulars: read-out: PPB (converted). It counts as ADME, cell-free.
Series [8] in a line: Bioavailability in SJL mouse at 20 mg/kg, po. It counts as ADME, organism-based. Conditions: in vivo.

For the compound `CCCc1cccc2c1n(C)c(=N)n2CC(=O)c1ccc(Cl)cc1`, the figures for the IC50 in series [1] and in series [2] were 0.5 µM and 0.4 µM, respectively. In turn, `Cn1c(=N)n(CC(=O)c2ccc(Br)cc2)c2ccccc21` displayed an IC50 in series [1] of 0.8 µM. In the case of `Cc1cccc2c1n(C)c(=N)n2CC(=O)c1ccc(Cl)cc1`, the half-life in series [3] is 4.9 h. The clearance in series [4] was 95 mL/min/kg. For the same compound, the concentration in solution in series [5] (solubility) was 79 µM (≈ 24.8 µg/mL). In addition, the IC50 was 0.1 µM in series [1] and 0.08 µM in series [2]. The Stability in series [6] came out at 49%. For the same compound, the fraction unbound in series [7] was 0.15. The same compound had a bioavailability in series [8] of 57%. For `Cn1c(=N)n(CC(=O)c2ccc(Cl)cc2)c2cccc(Cl)c21`, the IC50 in series [1] stood at 0.3 µM.

For the compound `Cc1ccc2c(c1)n(C)c(=N)n2CC(=O)c1ccc(Cl)cc1`, the IC50 in series [1] came to 1 µM; in series [2] it was 5 µM. `Cn1c(=N)n(CC(=O)c2cccc(Cl)c2)c2ccccc21` had an IC50 in series [1] of 16 µM. Turning to `CCc1cccc2c1n(C)c(=N)n2CC(=O)c1ccc(Cl)cc1`, the IC50 in series [1] came out at 0.03 µM; in series [2], 0.07 µM. On to `Cn1c(=N)n(CC(=O)c2ccc(Cl)c(Cl)c2)c2ccccc21`, for which the IC50 in series [1] came to 4 µM. Same read-out and setting: for `C[S+]([O-])c1nc2ccccc2n1CC(=O)c1ccc([N+](=O)[O-])cc1` (stereo not given) the value was 11 µM; for `CC(=O)c1nc2cc(-c3ccccc3)ccc2n1CC(=O)c1ccc(Br)cc1`, greater than 50 µM; for `COc1ccc2c(c1)nc(C(C)=O)n2CC(=O)c1ccc(Br)cc1`, greater than 50 µM. Regarding `COc1ccc2nc(C(C)=O)n(CC(=O)c3ccc(Br)cc3)c2c1`, in series [1], the IC50 is greater than 50 µM. `CC(=O)c1nc2ccccc2n1CC(=O)c1ccccc1` registered an IC50 in series [1] greater than 100 µM. On the same count and under the same terms, the same measure for `CC(=O)c1nc2ccccc2n1CC(=O)c1ccc(Br)cc1`: 2 µM. In series [5], `Cn1c(=N)n(CC(=O)c2ccc(Cl)cc2)c2ccccc21` yielded a solubility of 84 µM (≈ 25.2 µg/mL). The IC50 in series [1] turned out to be 0.8 µM; in series [2], 9 µM. `COc1cccc2c1n(C)c(=N)n2CC(=O)c1ccc(Br)cc1`: the IC50 in series [1] was 0.8 µM.

In series [5], `CC(=O)c1nc2ccccc2n1CC(=O)c1ccc([N+](=O)[O-])cc1` displayed a solubility of 4.5 µM (≈ 1.45 µg/mL). Further, the IC50 in series [1] was 3 µM. `Cn1c(=N)n(CCc2ccc(Br)cc2)c2ccccc21` gave an IC50 in series [1] of 11 µM. The same measure, in the same setting: the same measure for `Cn1c(=N)n(C[S+]([O-])c2ccc(Cl)cc2)c2ccccc21` (stereo not given): 3 µM.

Turning to `COCC/N=c1/n(C)c2ccccc2n1CC(=O)c1ccc(Br)cc1`, in series [1], the IC50 was found to be 1 µM. Still for that read-out and setting: for `CC(O)c1nc2ccccc2n1CC(=O)c1ccc([N+](=O)[O-])cc1` (stereo not given) the value was 20 µM; for `Cn1c(=N)n(CC(=O)c2ccc(Cl)cc2)c2cccc(C(F)(F)F)c21`, 0.7 µM; for `Cc1ccc2c(c1)n(CC(=O)c1ccc(Cl)cc1)c(=N)n2C`, 8 µM. On the same count and under the same terms, the same measure for `Cn1c(=N)n(CC(O)c2ccc(Br)cc2)c2ccccc21` (stereo not given): 40 µM. On the same count and under the same terms, for `Cn1c(=N)n(CCCC(=O)c2ccc(Br)cc2)c2ccccc21` the value was 6 µM.

`CC(=O)c1nc2ccccc2n1CC(=O)c1ccc(C#N)cc1` yielded an IC50 in series [1] greater than 100 µM. Still for that read-out and setting: for `CC(=O)c1nc2ccccc2n1CC(=O)c1ccc(Cl)cc1` the value was 8 µM; for `COc1cccc2c1nc(C(C)=O)n2CC(=O)c1ccc(Br)cc1`, 3 µM; for `Cn1c(=N)n(CC(=O)c2ccccc2Cl)c2ccccc21`, 22 µM. Still for that read-out and setting: the same measure for `CC(=O)c1nc2ccc(-c3ccccc3)cc2n1CC(=O)c1ccc(Br)cc1`: greater than 50 µM. Same read-out and setting: the same measure for `CC(=O)/N=c1/n(C)c2ccccc2n1CC(=O)c1ccc([N+](=O)[O-])cc1`: 50 µM; for `C/N=c1/n(C)c2ccccc2n1CC(=O)c1ccc(Cl)cc1`: 0.8 µM.
